# Measured values published in patent publication US20250161216A1, “CATIONIC LIPID ANALOGUES, COMPOSITIONS AND USES THEREOF” (GUANGZHOU LIDE BIOMEDICINE TECHNOLOGY CO., LTD., priority 2022, published 2025).
# Tested on: C57BL/6 mice
# Assay: In vivo expression level of Luciferase-mRNA delivered by intravenous injection (bioluminescence imaging)
# Conditions: mRNA-loaded nanoparticles, compounds of Example 1; intravenous (tail vein), 5 μg Luciferase-mRNA, 6 hours
# Experimental: (§1) Luciferase-mRNA was used as an mRNA model; and the cationic lipid analogues of Examples 1-5 were used to prepare drug-loaded nanoparticles according to the method of Example 6.
# 200 μL of nanoparticles containing 5 μg Luciferase-mRNA or the drug-loaded nanoparticles prepared above were injected into tail veins of 6-8 week-old C57BL/6 mice, and 200 μL of 1×PBS solution containing 3 mg D-Luciferin potassium salt was intraperitoneally injected into the mice 6 hours later. After waiting for 10 minutes, an in vivo expression level of the mRNA was evaluated by bioluminescence imaging.
row,Structure (SMILES),Fluorescence intensity of liver
1,CCCCCCCC/C=C\CCCCCCCC(=O)N(CCN(C)C)C(C(=O)NCCCCCCCCCCCCCCCCCC)C1CCCCC1 (stereo not drawn) [A23I18R1C18-1],5.74E+06
2,CCCCC/C=C\C/C=C\CCCCCCCC(=O)N(CCN(C)C)C(C(=O)NCCCCCCCCCCCCCCCCCC)C1CCCCC1 (stereo not drawn) [A23I18R1C18-2],8.25E+06
3,CC/C=C\C/C=C\C/C=C\CCCCCCCC(=O)N(CCN(C)C)C(C(=O)NCCCCCCCCCCCCCCCCCC)C1CCCCC1 (stereo not drawn) [A23I18R1C18-3],4.14E+06
4,CCCCCCCCCCCCCCCCCCNC(=O)C(C1CCCCC1)N(CCN(C)C)C(=O)CCCCCCCCCCCCCCCCC (stereo not drawn) [A23I18R1C18],9.09E+04
5,CCCCCCCCCCCCC#CC#CCCCCCCCCC(=O)N(CCN(C)C)C(C(=O)NCCCCCCCCCCCCCCCCCC)C1CCCCC1 (stereo not drawn) [A23I18R1C23],6.11E+06
6,CCCCCCCC/C=C\CCCCCCCC(=O)N(CCCN(C)C)C(C(=O)NCCCCCCCCCCCCCCCCCC)C1CCCCC1 (stereo not drawn) [A23I18R2C18-1],1.29E+06
7,CC/C=C\C/C=C\C/C=C\CCCCCCCC(=O)N(CCCN(C)C)C(C(=O)NCCCCCCCCCCCCCCCCCC)C1CCCCC1 (stereo not drawn) [A23I18R2C18-3],9.49E+05
8,CCCCCCCCCCCCC#CC#CCCCCCCCCC(=O)N(CCCN(C)C)C(C(=O)NCCCCCCCCCCCCCCCCCC)C1CCCCC1 (stereo not drawn) [A23I18R2C23],2.37E+06
9,CCCCCCCC/C=C\CCCCCCCC(=O)N(CCCN(CC)CC)C(C(=O)NCCCCCCCCCCCCCCCCCC)C1CCCCC1 (stereo not drawn) [A23I18R3C18-1],1.26E+06
10,CCCCC/C=C\C/C=C\CCCCCCCC(=O)N(CCCN(CC)CC)C(C(=O)NCCCCCCCCCCCCCCCCCC)C1CCCCC1 (stereo not drawn) [A23I18R3C18-2],4.86E+06
11,CC/C=C\C/C=C\C/C=C\CCCCCCCC(=O)N(CCCN(CC)CC)C(C(=O)NCCCCCCCCCCCCCCCCCC)C1CCCCC1 (stereo not drawn) [A23I18R3C18-3],1.13E+06
12,CCCCCCCCCCCCCCCCCCNC(=O)C(C1CCCCC1)N(CCCN(CC)CC)C(=O)CCCCCCCCCCCCCCCCC (stereo not drawn) [A23I18R3C18],2.14E+03
13,CCCCCCCCCCCCC#CC#CCCCCCCCCC(=O)N(CCCN(CC)CC)C(C(=O)NCCCCCCCCCCCCCCCCCC)C1CCCCC1 (stereo not drawn) [A23I18R3C23],7.89E+05

# Same assay, conditions: mRNA-loaded nanoparticles, compounds of Example 2; intravenous (tail vein), 5 μg Luciferase-mRNA, 6 hours
Structure (SMILES),Fluorescence intensity of spleen,Bioluminescence intensity
CCCCCCCC/C=C\CCCCCCCC(=O)N(CCC)C(C(=O)NCCN(C)CCNC(=O)C(C(C)C)N(CCC)C(=O)CCCCCCC/C=C\CCCCCCCC)C(C)C (stereo not drawn) [A1I4R21C18-1],2.76E+05,–
CCCCC/C=C\C/C=C\CCCCCCCC(=O)N(CCO)C(C(=O)NCCN(C)CCNC(=O)C(C1CC1)N(CCO)C(=O)CCCCCCC/C=C\C/C=C\CCCCC)C1CC1 (stereo not drawn) [A21I4R22C18-2],1.26E+03,–
CCCCCCCC/C=C\CCCCCCCC(=O)N(CCOC)C(C(=O)NCCN(C)CCNC(=O)C(C1CC1)N(CCOC)C(=O)CCCCCCC/C=C\CCCCCCCC)C1CC1 (stereo not drawn) [A21I4R23C18-1],2.28E+04,–
CCCCC/C=C\C/C=C\CCCCCCCC(=O)N(CCOC)C(C(=O)NCCN(C)CCNC(=O)C(C1CC1)N(CCOC)C(=O)CCCCCCC/C=C\C/C=C\CCCCC)C1CC1 (stereo not drawn) [A21I4R23C18-2],6.97E+04,–
CCCCCCCCCCCCCCCCCC(=O)N(CCOC)C(C(=O)NCCN(C)CCNC(=O)C(C1CC1)N(CCOC)C(=O)CCCCCCCCCCCCCCCCC)C1CC1 (stereo not drawn) [A21I4R23C18],2.65E+04,–
CCCCCCCC/C=C\CCCCCCCC(=O)N(CCCN(C)C)C(C(=O)NCCN(C)CCNC(=O)C(C1CCCCC1)N(CCCN(C)C)C(=O)CCCCCCC/C=C\CCCCCCCC)C1CCCCC1 (stereo not drawn) [A23I4R2C18-1],1.78E+03,–
CCCCC/C=C\C/C=C\CCCCCCCC(=O)N(CCCN(C)C)C(C(=O)NCCN(C)CCNC(=O)C(C1CCCCC1)N(CCCN(C)C)C(=O)CCCCCCC/C=C\C/C=C\CCCCC)C1CCCCC1 (stereo not drawn) [A23I4R2C18-2],2.18E+03,–
CCCCCCCCCCCCCCCCCC(=O)N(CCCN(C)C)C(C(=O)NCCN(C)CCNC(=O)C(C1CCCCC1)N(CCCN(C)C)C(=O)CCCCCCCCCCCCCCCCC)C1CCCCC1 (stereo not drawn) [A23I4R2C18],–,5.71E+02
CCCCCCCC/C=C\CCCCCCCC(=O)N(CCN1CCCCCC1)C(C(=O)NCCN(C)CCNC(=O)C(C1CCCCC1)N(CCN1CCCCCC1)C(=O)CCCCCCC/C=C\CCCCCCCC)C1CCCCC1 (stereo not drawn) [A23I4R13C18-1],–,6.61E+02
CCCCC/C=C\C/C=C\CCCCCCCC(=O)N(CCN1CCCCCC1)C(C(=O)NCCN(C)CCNC(=O)C(C1CCCCC1)N(CCN1CCCCCC1)C(=O)CCCCCCC/C=C\C/C=C\CCCCC)C1CCCCC1 (stereo not drawn) [A23I4R13C18-2],9.46E+03,–
CCCCCCCCCCCCCCCCCC(=O)N(CCN1CCCCCC1)C(C(=O)NCCN(C)CCNC(=O)C(C1CCCCC1)N(CCN1CCCCCC1)C(=O)CCCCCCCCCCCCCCCCC)C1CCCCC1 (stereo not drawn) [A23I4R13C18],–,7.89E+02
CCCCCCCC/C=C\CCCCCCCC(=O)N(CCC)C(C(=O)NCCN(C)CCNC(=O)C(C1CCCCC1)N(CCC)C(=O)CCCCCCC/C=C\CCCCCCCC)C1CCCCC1 (stereo not drawn) [A23I4R21C18-1],9.63E+04,–
CCCCC/C=C\C/C=C\CCCCCCCC(=O)N(CCC)C(C(=O)NCCN(C)CCNC(=O)C(C1CCCCC1)N(CCC)C(=O)CCCCCCC/C=C\C/C=C\CCCCC)C1CCCCC1 (stereo not drawn) [A23I4R21C18-2],6.07E+04,–
CCCCCCCCCCCCCCCCCC(=O)N(CCC)C(C(=O)NCCN(C)CCNC(=O)C(C1CCCCC1)N(CCC)C(=O)CCCCCCCCCCCCCCCCC)C1CCCCC1 (stereo not drawn) [A23I4R21C18],5.43E+03,–
CCCCC/C=C\C/C=C\CCCCCCCC(=O)N(CCOC)C(C(=O)NCCN(C)CCNC(=O)C(C1CCCCC1)N(CCOC)C(=O)CCCCCCC/C=C\C/C=C\CCCCC)C1CCCCC1 (stereo not drawn) [A23I4R23C18-2],1.04E+05,–

# Tested on: C57BL/6 mice
# Assay: In vivo expression level of Luciferase-mRNA delivered by intramuscular injection (bioluminescence imaging)
# Conditions: mRNA-loaded nanoparticles, compounds of Example 2; intramuscular (leg muscle), 5 μg Luciferase-mRNA, 6 hours
# Experimental: as §1
# 100 μL of nanoparticles containing 5 μg Luciferase-mRNA or the drug-loaded nanoparticles prepared above were injected into the leg muscles of 6-8 week-old C57BL/6 mice, and 200 μL of 1×PBS solution containing 3 mg D-Luciferin potassium salt was intraperitoneally injected into the mice 6 hours later. After waiting for 10 minutes, an in vivo expression level of the mRNA was evaluated by bioluminescence imaging.
row,Structure (SMILES),Local fluorescence intensity
1,CCCCCCCC/C=C\CCCCCCCC(=O)N(CCC)C(C(=O)NCCN(C)CCNC(=O)C(C(C)C)N(CCC)C(=O)CCCCCCC/C=C\CCCCCCCC)C(C)C (stereo not drawn) [A1I4R21C18-1],2.26E+07
2,CCCCC/C=C\C/C=C\CCCCCCCC(=O)N(CCCCCO)C(C(=O)NCCN(C)CCNC(=O)C(C(C)C)N(CCCCCO)C(=O)CCCCCCC/C=C\C/C=C\CCCCC)C(C)C (stereo not drawn) [A1I4R27C18-2],1.67E+04
3,CCCCC/C=C\C/C=C\CCCCCCCC(=O)N(CCCCCCO)C(C(=O)NCCN(C)CCNC(=O)C(C(C)C)N(CCCCCCO)C(=O)CCCCCCC/C=C\C/C=C\CCCCC)C(C)C (stereo not drawn) [A1I4R28C18-2],1.72E+06
4,CCCC/C=C\C/C=C\CCCCCCCC(=O)N(C(C(=O)NCCN(C)CCNC(=O)C(C(C)C)N(C(=O)CCCCCCC/C=C\C/C=C\CCCCC)C(C)(CO)CO)C(C)C)C(C)(CO)CO (stereo not drawn) [A1I4R29C18-2],2.99E+04
5,CCCCC/C=C\C/C=C\CCCCCCCC(=O)N(C(C(=O)NCCN(C)CCNC(=O)C(C(C)C)N(C(=O)CCCCCCC/C=C\C/C=C\CCCCC)C(CO)(CO)CO)C(C)C)C(O)(CO)CO (stereo not drawn) [A1I4R30C18-2],2.05E+04
6,CCCCC/C=C\C/C=C\CCCCCCCC(=O)N(CCCOCC)C(C(=O)NCCN(C)CCNC(=O)C(C(C)C)N(CCCOCC)C(=O)CCCCCCC/C=C\C/C=C\CCCCC)C(C)C (stereo not drawn) [A1I4R31C18-2],5.21E+04
7,CCCCC/C=C\C/C=C\CCCCCCCC(=O)N(CCCOC(C)C)C(C(=O)NCCN(C)CCNC(=O)C(C(C)C)N(CCCOC(C)C)C(=O)CCCCCCC/C=C\C/C=C\CCCCC)C(C)C (stereo not drawn) [A1I4R32C18-2],2.57E+04
8,CCCC/C=C\C/C=C\CCCCCCCC(=O)N(C(CC)COC)C(C(=O)NCCN(C)CCNC(=O)C(C(C)C)N(C(=O)CCCCCCC/C=C\C/C=C\CCCCC)C(CC)COC)C(C)C (stereo not drawn) [A1I4R33C18-2],1.02E+05
9,CCCC/C=C\C/C=C\CCCCCCCC(=O)N(CC(OC)OC)C(C(=O)NCCN(C)CCNC(=O)C(C(C)C)N(CC(OC)OC)C(=O)CCCCCCC/C=C\C/C=C\CCCCC)C(C)C (stereo not drawn) [A1I4R34C18-2],5.58E+05
10,CCCC/C=C\C/C=C\CCCCCCCC(=O)N(CC1CCCO1)C(C(=O)NCCN(C)CCNC(=O)C(C(C)C)N(CC1CCCO1)C(=O)CCCCCCC/C=C\C/C=C\CCCCC)C(C)C (stereo not drawn) [A1I4R35C18-2],3.38E+05
11,CCCC/C=C\C/C=C\CCCCCCCC(=O)N(CCOCCO)C(C(=O)NCCN(C)CCNC(=O)C(C(C)C)N(CCOCCO)C(=O)CCCCCCC/C=C\C/C=C\CCCCC)C(C)C (stereo not drawn) [A1I4R36C18-2],5.68E+04
12,CCCC/C=C\C/C=C\CCCCCCCC(=O)N(CCCO)C(C(=O)NCCN(C)CCNC(=O)C(C(C)C)N(CCCO)C(=O)CCCCCCC/C=C\C/C=C\CCCCC)C(C)C (stereo not drawn) [A1I4R42C18-2],7.04E+04
13,CCCC/C=C\C/C=C\CCCCCCCC(=O)N(CCCOC)C(C(=O)NCCN(C)CCNC(=O)C(C(C)C)N(CCCOC)C(=O)CCCCCCC/C=C\C/C=C\CCCCC)C(C)C (stereo not drawn) [A1I4R43C18-2],6.57E+04
14,CCCCC/C=C\C/C=C\CCCCCCCC(=O)N(CC1CCOCC1)C(C(=O)NCCN(C)CCNC(=O)C(C(C)C)N(CC1CCOCC1)C(=O)CCCCCCC/C=C\C/C=C\CCCCC)C(C)C (stereo not drawn) [A1I4R48C18-2],8.55E+04
